Test results published in article PMC6934184, “Selective DNA-PKcs inhibition extends the therapeutic index of localized radiotherapy and chemotherapy” (The Journal of Clinical Investigation, 2019).

Biological target: T1, NTRK2 (TRKB) (Homo sapiens, UniProt Q16620)
T1 construct: purchased Thermo Fisher Scientific (Life Technologies) SelectScreen
Experiment: SelectScreen Z'LYTE
Format: biochemical
Procedure, shortened: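 NU5455 was profiled across the SelectScreen Broad panel of kinase activity and binding assays. Z'LYTE reactions such as CSF1R ran at apparent Km ATP, while the Adapta CAMK1 assay used ATP listed as 10. Values are given as percent.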

T1 sequence (Q16620 32-822): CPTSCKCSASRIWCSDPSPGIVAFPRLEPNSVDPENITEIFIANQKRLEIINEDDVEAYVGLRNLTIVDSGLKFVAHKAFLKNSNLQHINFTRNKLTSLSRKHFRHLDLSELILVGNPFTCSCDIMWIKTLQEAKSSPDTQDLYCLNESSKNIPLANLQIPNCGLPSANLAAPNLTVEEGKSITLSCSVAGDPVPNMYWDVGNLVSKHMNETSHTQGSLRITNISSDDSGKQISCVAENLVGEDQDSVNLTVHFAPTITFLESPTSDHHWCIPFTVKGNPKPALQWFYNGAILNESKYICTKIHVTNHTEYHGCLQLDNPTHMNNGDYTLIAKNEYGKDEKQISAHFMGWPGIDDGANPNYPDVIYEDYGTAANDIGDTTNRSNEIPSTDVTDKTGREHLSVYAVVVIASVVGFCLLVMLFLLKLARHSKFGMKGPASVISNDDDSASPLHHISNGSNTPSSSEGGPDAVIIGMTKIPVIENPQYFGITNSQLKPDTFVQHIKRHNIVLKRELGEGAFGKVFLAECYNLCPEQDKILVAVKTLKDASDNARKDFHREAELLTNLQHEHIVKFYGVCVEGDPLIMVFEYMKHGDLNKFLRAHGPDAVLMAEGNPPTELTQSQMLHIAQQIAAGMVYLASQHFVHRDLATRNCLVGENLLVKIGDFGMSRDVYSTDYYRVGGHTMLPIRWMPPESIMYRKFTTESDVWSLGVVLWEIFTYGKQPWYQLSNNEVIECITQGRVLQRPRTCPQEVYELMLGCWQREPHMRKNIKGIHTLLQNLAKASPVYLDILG

CN(C(=O)CN1CCOCC1)c1ccc2sc3c(-c4cccc5c(=O)cc(N6CC7CCC(C6)O7)oc45)cccc3c2c1 [NU5455] was tested, and the inhibition at 1 µM was 5.1%.
